Experimental data reported in publication PMC11374673, “Discovery of isoquinoline sulfonamides as allosteric gyrase inhibitors with activity against fluoroquinolone-resistant bacteria” (Nature Chemistry, 2024).
Values joined by “and” are separate entries in the source; they are usually repeats but may differ in a detail not shown here. Identical values can stand only once.

Test system: E. coli W3110
Experiment: Checkerboard assay with PMBN
Conditions: for Checkerboard well reading (growth), Average values: average of 3 wells; for Checkerboard well reading (growth): single wells (triplicate)
[1] = LEI-801 0.78125 µM + PMBN 0.5 µM
[2] = LEI-801 0.78125 µM + PMBN 16 µM
[3] = LEI-801 0.78125 µM + PMBN 32 µM
[4] = LEI-801 1.5625 µM + PMBN 0.5 µM

O=S(=O)(NC[C@H]1CC[C@@H](c2ccc(-c3ccc(F)nc3)cc2)N1)c1cccc2cnccc12 [LEI-801]
MIC (Escherichia coli, W3110): 200 µM
Checkerboard well reading (growth), Average values (LEI-801 0.78125 µM + PMBN 0 µM): 0.7994
Checkerboard well reading (growth) (LEI-801 0.78125 µM + PMBN 0 µM): 0.8278 and 0.8 and 0.7705
Checkerboard well reading (growth), Average values [1]: 0.7351
Checkerboard well reading (growth) [1]: 0.7319 and 0.7576 and 0.7157
Checkerboard well reading (growth), Average values (LEI-801 0.78125 µM + PMBN 1 µM): 0.8267
Checkerboard well reading (growth) (LEI-801 0.78125 µM + PMBN 1 µM): 0.8444 and 0.8247 and 0.811
Checkerboard well reading (growth), Average values (LEI-801 0.78125 µM + PMBN 2 µM): 0.8646
Checkerboard well reading (growth) (LEI-801 0.78125 µM + PMBN 2 µM): 0.8699 and 0.8873 and 0.8367
Checkerboard well reading (growth), Average values (LEI-801 0.78125 µM + PMBN 4 µM): 0.6877
Checkerboard well reading (growth) (LEI-801 0.78125 µM + PMBN 4 µM): 0.7078 and 0.6767 and 0.6785
Checkerboard well reading (growth), Average values (LEI-801 0.78125 µM + PMBN 8 µM): 0.5094
Checkerboard well reading (growth) (LEI-801 0.78125 µM + PMBN 8 µM): 0.4316 and 0.5477 and 0.5488
Checkerboard well reading (growth), Average values [2]: 0.3746
Checkerboard well reading (growth) [2]: 0.3718 and 0.3921 and 0.3599
Checkerboard well reading (growth), Average values [3]: 0.3716
Checkerboard well reading (growth) [3]: 0.3691 and 0.3426 and 0.4032
Checkerboard well reading (growth), Average values (LEI-801 1.5625 µM + PMBN 0 µM): 0.7861
Checkerboard well reading (growth) (LEI-801 1.5625 µM + PMBN 0 µM): 0.8385 and 0.7794 and 0.7404
Checkerboard well reading (growth), Average values [4]: 0.7438
Checkerboard well reading (growth) [4]: 0.7318 and 0.7541 and 0.7454
Checkerboard well reading (growth), Average values (LEI-801 1.5625 µM + PMBN 1 µM): 0.7641
Checkerboard well reading (growth) (LEI-801 1.5625 µM + PMBN 1 µM): 0.7579 and 0.7961 and 0.7382
Checkerboard well reading (growth), Average values (LEI-801 1.5625 µM + PMBN 2 µM): 0.7789
Checkerboard well reading (growth) (LEI-801 1.5625 µM + PMBN 2 µM): 0.7943 and 0.7704 and 0.772
Checkerboard well reading (growth), Average values (LEI-801 1.5625 µM + PMBN 4 µM): 0.5724
Checkerboard well reading (growth) (LEI-801 1.5625 µM + PMBN 4 µM): 0.635 and 0.5325 and 0.5498
Checkerboard well reading (growth), Average values (LEI-801 1.5625 µM + PMBN 8 µM): 0.3746
Checkerboard well reading (growth) (LEI-801 1.5625 µM + PMBN 8 µM): 0.3243 and 0.3533 and 0.4462
Checkerboard well reading (growth), Average values (LEI-801 1.5625 µM + PMBN 16 µM): 0.3394
Checkerboard well reading (growth) (LEI-801 1.5625 µM + PMBN 16 µM): 0.3897 and 0.339 and 0.2896
Checkerboard well reading (growth), Average values (LEI-801 1.5625 µM + PMBN 32 µM): 0.3074
Checkerboard well reading (growth) (LEI-801 1.5625 µM + PMBN 32 µM): 0.2616 and 0.2961 and 0.3644
Checkerboard well reading (growth), Average values (LEI-801 3.125 µM + PMBN 0 µM): 0.7892
Checkerboard well reading (growth), Average values (LEI-801 3.125 µM + PMBN 0.5 µM): 0.6976
Checkerboard well reading (growth), Average values (LEI-801 3.125 µM + PMBN 1 µM): 0.7008
Checkerboard well reading (growth), Average values (LEI-801 3.125 µM + PMBN 2 µM): 0.5725
Checkerboard well reading (growth), Average values (LEI-801 3.125 µM + PMBN 4 µM): 0.4871
Checkerboard well reading (growth), Average values (LEI-801 3.125 µM + PMBN 8 µM): 0.2805
Checkerboard well reading (growth), Average values (LEI-801 3.125 µM + PMBN 16 µM): 0.2397
Checkerboard well reading (growth), Average values (LEI-801 3.125 µM + PMBN 32 µM): 0.2242
Checkerboard well reading (growth), Average values (LEI-801 6.25 µM + PMBN 0 µM): 0.7739
Checkerboard well reading (growth), Average values (LEI-801 6.25 µM + PMBN 0.5 µM): 0.6373
Checkerboard well reading (growth), Average values (LEI-801 6.25 µM + PMBN 1 µM): 0.4799
Checkerboard well reading (growth), Average values (LEI-801 6.25 µM + PMBN 2 µM): 0.2823
Checkerboard well reading (growth), Average values (LEI-801 6.25 µM + PMBN 4 µM): 0.1833
Checkerboard well reading (growth), Average values (LEI-801 6.25 µM + PMBN 8 µM): 0.1357
Checkerboard well reading (growth), Average values (LEI-801 6.25 µM + PMBN 16 µM): 0.1386
Checkerboard well reading (growth), Average values (LEI-801 6.25 µM + PMBN 32 µM): 0.1521
